From PubChem BioAssay AID1963986 (Molecular Pharmacology Branch, DTP, NCI, 2024)
pIC50: −log10 of the molar value.

Tested on: 171881-019-R-J1-PDC tumor spheroid viability
Test: Anticancer human tumor 171881-019-R-J1-PDC patient-derived invasive breast carcinoma cell line growth inhibition [PI3K]
Conditions: spheroids with HUVEC and MSC; for pIC50: curve of first compound; for viability, T/C: stronger effect = lower value
Outline: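 Three cell types, namely tumor cells, endothelial cells and mesenchymal stem cells, formed each spheroid. Combinations with four PI3K inhibitors were screened at clinically achievable concentrations decreasing by half-log, and spheroid viability was recorded.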

[1] = second compound 0.0316 µM, first compound 0.0316 µM
[2] = second compound 0.0316 µM, first compound 0.1 µM
[3] = second compound 0.0316 µM, first compound 0.316 µM
[4] = second compound 0.0316 µM, first compound 1 µM
[5] = second compound 0.0316 µM, first compound 3.16 µM
[6] = second compound 0.0316 µM, first compound 10 µM
[7] = second compound 0.1 µM, first compound 0.0316 µM
[8] = second compound 0.1 µM, first compound 0.1 µM
[9] = second compound 0.1 µM, first compound 0.316 µM
[10] = second compound 0.1 µM, first compound 1 µM
[11] = second compound 0.1 µM, first compound 3.16 µM
[12] = second compound 0.1 µM, first compound 10 µM
[13] = second compound 0.316 µM, first compound 0.0316 µM
[14] = second compound 0.316 µM, first compound 0.1 µM
[15] = second compound 0.316 µM, first compound 0.316 µM
[16] = second compound 0.316 µM, first compound 1 µM
[17] = second compound 0.316 µM, first compound 3.16 µM
[18] = second compound 0.316 µM, first compound 10 µM
[19] = second compound 1 µM, first compound 0.0316 µM
[20] = second compound 1 µM, first compound 0.1 µM
[21] = second compound 1 µM, first compound 0.316 µM
[22] = second compound 1 µM, first compound 1 µM
[23] = second compound 1 µM, first compound 3.16 µM
[24] = second compound 1 µM, first compound 10 µM
[25] = second compound 3.16 µM, first compound 0.0316 µM
[26] = second compound 3.16 µM, first compound 0.1 µM
[27] = second compound 3.16 µM, first compound 0.316 µM
[28] = second compound 3.16 µM, first compound 1 µM
[29] = second compound 3.16 µM, first compound 3.16 µM
[30] = second compound 3.16 µM, first compound 10 µM
[31] = second compound 10 µM, first compound 0.0316 µM
[32] = second compound 10 µM, first compound 0.1 µM
[33] = second compound 10 µM, first compound 0.316 µM
[34] = second compound 10 µM, first compound 1 µM
[35] = second compound 10 µM, first compound 3.16 µM
[36] = second compound 10 µM, first compound 10 µM
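Note: spheroids exposed to compound for 7 days before viability read.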
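Throughout, for viability, T/C: 100% = DMSO vehicle-treated spheroids.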

## C=CC(=O)N1CCN(c2nc(=O)n(-c3c(C)ccnc3C(C)C)c3nc(-c4c(O)cccc4F)c(F)cc23)C(C)C1 (stereo unspecified) + Cc1nc(NC(=O)N2CCCC2C(N)=O)sc1-c1ccnc(C(C)(C)C(F)(F)F)c1
Second compound 0.0316 µM
  pIC50: 5.01
Second compound 0.1 µM
  pIC50: 5.03
Second compound 0.316 µM
  pIC50: 5.63
Second compound 1 µM
  pIC50: > 7.50
Second compound 3.16 µM
  pIC50: > 7.50
Second compound 10 µM
  pIC50: > 7.50
[1]
  viability, T/C: 92.6%
[2]
  viability, T/C: 83.4%
[3]
  viability, T/C: 98.4%
[4]
  viability, T/C: 92%
[5]
  viability, T/C: 79.6%
[6]
  viability, T/C: 48.8%
[7]
  viability, T/C: 84.1%
[8]
  viability, T/C: 73.2%
[9]
  viability, T/C: 86.3%
[10]
  viability, T/C: 87.4%
[11]
  viability, T/C: 86.9%
[12]
  viability, T/C: 48.2%
[13]
  viability, T/C: 55%
[14]
  viability, T/C: 50.9%
[15]
  viability, T/C: 56.8%
[16]
  viability, T/C: 60.4%
[17]
  viability, T/C: 57.9%
[18]
  viability, T/C: 34.7%
[19]
  viability, T/C: 29.8%
[20]
  viability, T/C: 32.3%
[21]
  viability, T/C: 32.1%
[22]
  viability, T/C: 32.4%
[23]
  viability, T/C: 33%
[24]
  viability, T/C: 19.4%
[25]
  viability, T/C: 14.7%
[26]
  viability, T/C: 15.2%
[27]
  viability, T/C: 14.5%
[28]
  viability, T/C: 15.2%
[29]
  viability, T/C: 16.8%
[30]
  viability, T/C: 8.95%
[31]
  viability, T/C: 3.67%
[32]
  viability, T/C: 3.63%
[33]
  viability, T/C: 4.33%
[34]
  viability, T/C: 4.28%
[35]
  viability, T/C: 4.51%
[36]
  viability, T/C: 2.34%

## CC(Cn1ccc(-c2ccc(C#N)c(Cl)c2)n1)NC(=O)c1cc(C(C)O)[nH]n1 (stereo unspecified) + Cc1nc(NC(=O)N2CCCC2C(N)=O)sc1-c1ccnc(C(C)(C)C(F)(F)F)c1
Second compound 0.0316 µM
  pIC50: < 5.00
Second compound 0.1 µM
  pIC50: < 5.00
Second compound 0.316 µM
  pIC50: 5.38
Second compound 1 µM
  pIC50: > 7.50
Second compound 3.16 µM
  pIC50: > 7.50
Second compound 10 µM
  pIC50: > 7.50
[1]
  viability, T/C: 101%
[2]
  viability, T/C: 85.3%
[3]
  viability, T/C: 87.7%
[4]
  viability, T/C: 93.7%
[5]
  viability, T/C: 85%
[6]
  viability, T/C: 62.8%
[7]
  viability, T/C: 74.8%
[8]
  viability, T/C: 72.9%
[9]
  viability, T/C: 81.3%
[10]
  viability, T/C: 80%
[11]
  viability, T/C: 75.6%
[12]
  viability, T/C: 59.1%
[13]
  viability, T/C: 55.5%
[14]
  viability, T/C: 55.3%
[15]
  viability, T/C: 50.7%
[16]
  viability, T/C: 57.7%
[17]
  viability, T/C: 52.5%
[18]
  viability, T/C: 40.3%
[19]
  viability, T/C: 34.4%
[20]
  viability, T/C: 32.9%
[21]
  viability, T/C: 33.4%
[22]
  viability, T/C: 30.8%
[23]
  viability, T/C: 30.5%
[24]
  viability, T/C: 24.4%
[25]
  viability, T/C: 14.5%
[26]
  viability, T/C: 13.7%
[27]
  viability, T/C: 15.3%
[28]
  viability, T/C: 13.1%
[29]
  viability, T/C: 14.2%
[30]
  viability, T/C: 11.9%
[31]
  viability, T/C: 3.76%
[32]
  viability, T/C: 3.6%
[33]
  viability, T/C: 3.61%
[34]
  viability, T/C: 3.9%
[35]
  viability, T/C: 3.74%
[36]
  viability, T/C: 3.87%

## Cn1nccc1Nc1nccc(-c2ccn(C(CO)c3ccc(Cl)c(F)c3)c(=O)c2)n1 (stereo unspecified) + Cc1nc(NC(=O)N2CCCC2C(N)=O)sc1-c1ccnc(C(C)(C)C(F)(F)F)c1
Second compound 0.0316 µM
  pIC50: 6.53
Second compound 0.1 µM
  pIC50: 6.85
Second compound 0.316 µM
  pIC50: 7.46
Second compound 1 µM
  pIC50: > 7.50
Second compound 3.16 µM
  pIC50: > 7.50
Second compound 10 µM
  pIC50: > 7.50
[1]
  viability, T/C: 89.8%
[2]
  viability, T/C: 73.2%
[3]
  viability, T/C: 47.2%
[4]
  viability, T/C: 32.1%
[5]
  viability, T/C: 23.1%
[6]
  viability, T/C: 18.4%
[7]
  viability, T/C: 81%
[8]
  viability, T/C: 55.8%
[9]
  viability, T/C: 36.2%
[10]
  viability, T/C: 24%
[11]
  viability, T/C: 18.5%
[12]
  viability, T/C: 16.2%
[13]
  viability, T/C: 51.1%
[14]
  viability, T/C: 37.8%
[15]
  viability, T/C: 22.6%
[16]
  viability, T/C: 14.6%
[17]
  viability, T/C: 10.9%
[18]
  viability, T/C: 8.35%
[19]
  viability, T/C: 27.4%
[20]
  viability, T/C: 20%
[21]
  viability, T/C: 12.5%
[22]
  viability, T/C: 7.16%
[23]
  viability, T/C: 5.6%
[24]
  viability, T/C: 4.92%
[25]
  viability, T/C: 12.3%
[26]
  viability, T/C: 8.08%
[27]
  viability, T/C: 4.7%
[28]
  viability, T/C: 3.17%
[29]
  viability, T/C: 2.1%
[30]
  viability, T/C: 1.72%
[31]
  viability, T/C: 2.73%
[32]
  viability, T/C: 2.2%
[33]
  viability, T/C: 1.3%
[34]
  viability, T/C: 0.88%
[35]
  viability, T/C: 0.68%
[36]
  viability, T/C: 0.53%
